Broadly, the IC50 is the midpoint of a concentration-inhibition curve. A high value points to weaker potency in that assay. As usually defined, the Ki is the dissociation constant of the complex between target and ligand, obtained from inhibition or displacement.

We go through 1 molecule from patent US20170166558A1, “O-GLCNAC TRANSFERASE (OGT) INHIBITORS AND USES THEREOF” (President and Fellows of Harvard College, priority 2014, published 2017).

In data set [1] the test system is CHO cells. As to the kind of experiment: ApoTox-Glo cell viability, cytotoxicity and apoptosis signaling assay. It is filed as cell-based, Chinese hamster. The protocol:
Cell viability, cytotoxicity and apoptosis signaling assays were performed in a 96-well plate using ApoTox-Glo reagent (Promega) according to the manufacturer's instructions.

In data set [2] the target is T1, ncOGT (Homo sapiens, UniProt O15294).
T1 construct: full length human OGT (ncOGT); made in house
T1 sequence (O15294 1-1046): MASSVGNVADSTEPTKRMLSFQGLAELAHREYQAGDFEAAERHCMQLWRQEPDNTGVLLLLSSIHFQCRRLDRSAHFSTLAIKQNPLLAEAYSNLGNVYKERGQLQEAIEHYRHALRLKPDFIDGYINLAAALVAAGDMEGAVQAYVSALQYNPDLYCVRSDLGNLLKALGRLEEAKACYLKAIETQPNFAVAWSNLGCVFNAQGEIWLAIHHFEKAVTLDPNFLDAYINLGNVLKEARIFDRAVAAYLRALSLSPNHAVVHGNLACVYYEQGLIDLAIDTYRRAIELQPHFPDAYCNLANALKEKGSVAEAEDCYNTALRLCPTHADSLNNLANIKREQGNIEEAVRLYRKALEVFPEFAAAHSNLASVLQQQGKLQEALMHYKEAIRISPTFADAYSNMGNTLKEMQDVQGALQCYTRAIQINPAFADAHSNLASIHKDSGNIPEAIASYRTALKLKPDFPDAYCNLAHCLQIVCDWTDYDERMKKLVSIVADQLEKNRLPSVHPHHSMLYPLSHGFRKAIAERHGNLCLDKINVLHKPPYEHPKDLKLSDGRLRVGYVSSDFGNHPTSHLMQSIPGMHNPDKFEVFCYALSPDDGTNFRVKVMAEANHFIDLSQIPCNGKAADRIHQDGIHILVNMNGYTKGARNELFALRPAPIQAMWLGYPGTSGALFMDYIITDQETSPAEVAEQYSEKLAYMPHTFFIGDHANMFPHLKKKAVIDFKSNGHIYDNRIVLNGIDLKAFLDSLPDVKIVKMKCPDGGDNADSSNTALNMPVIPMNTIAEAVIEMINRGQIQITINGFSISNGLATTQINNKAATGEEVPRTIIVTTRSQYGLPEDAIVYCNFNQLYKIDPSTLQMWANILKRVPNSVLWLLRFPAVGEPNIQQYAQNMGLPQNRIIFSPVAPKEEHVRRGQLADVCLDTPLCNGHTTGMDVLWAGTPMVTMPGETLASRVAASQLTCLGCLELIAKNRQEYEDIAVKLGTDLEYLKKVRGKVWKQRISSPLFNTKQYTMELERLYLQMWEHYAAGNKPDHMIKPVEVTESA
As to the kind of experiment: Radiometric capture assay with Nup62 acceptor and UDP-14C-GlcNAc. It is filed as biochemical. On the procedure: Radiometric capture assay: Nucleoporin 62 (Nup62) was used as a model substrate. IC50 values of the both inhibitors were determined at range of 0 to 100 μM (eight point, duplicate). OGT antagonists were tested in a reaction mixture containing 18 μM Nup62, 6 μM UDP-^14C-GlcNAc, 100 nM ncOGT, and lx phosphate-buffered saline (1× PBS) (137 mM NaCl, 2.7 mM KCl, 10 mM Na2HPO4, and 1.8 mM KH2PO4, pH 7.4). The Nup62 glycosylation reactions were run for 15 min at 37° C. Reaction mixtures were subsequently quenched by spottinged on Whatman® Protran® nitrocellulose membrane, washed with 1× PBS three times for 15 minutes each. The membranes were air dried and then counted by liquid scintillation counting. The data were analyzed by Microsoft® Excel and Prism 6 (Graphpad®). Robust non-linear variable slope regressions were generated to determine the IC50 and Hill slope values.
In order to evaluate the mode of inhibition of OSMI-1 and UDP-5S-GlcNAc, a series of experiments, as outlined above, were performed with Nup62 as glycosylation substrate. The inhibition test of OSMI-1 was performed by varying the UDP-^14C-GlcNAc concentration from 0 to 0.25 mM while holding concentration of Nup62 constant at 10 μM with four different concentrations of OSMI-1 (0 to 2 μM) in 1× PBS with 100 nM ncOGT and with fixed and saturating concentrations of GST-Nup62 acceptor. The inhibition test of UDP-5S-GlcNAc was performed by varying the UDP-^14C-GlcNAc concentration from 0 to 1 mM while holding concentration of Nup62 constant at 10 μM with five different concentrations of UDP-5S-GlcNAc (0, 1, 5, 10, and 15 μM) in 1× PBS with 100 nM ncOGT. Each reaction was spotted on Whatman® grade P81 ion exchange chromatography paper circles, washed with 1× PBS three times for 15 minutes each. The membranes were air dried and then counted by liquid scintillation counting. Each assay was duplicated in parallel. The data were analyzed by Microsoft® Excel and Prism 6 (Graphpad®). The Michaelis-Menten plots and Ki of both inhibitors calculated under non-linear regression with competitive inhibition mode are shown in FIG. 5.

Data set [3] can be described thus: Aqueous solubility. It is filed as physicochemical.
Data set [4] has as its system OGT in CHO cells. As to the kind of experiment: Immunoblotting of global O-GlcNAcylation (RL2) in CHO cells. It is filed as cell-based, Chinese hamster. On the procedure:
In vivo inhibition of glycosylation: For all immunoblotting experiments, CHO-K1 (CHO) cells were grown in F12-K media supplemented with 10% FBS and antibiotics at 37° C. in a 5% CO2 incubator. Cells were treated by adding indicated inhibitor in DMSO vehicle (0.5% final vehicle concentration) upon reaching 70% confluence. After indicated treatment length, cells were harvested by aspirating growth media and washing with ice cold 1× PBS. Cells were subsequently lysed in boiling 1% SDS/20 mM HEPES 7.9. After cooling to room temperature, 1 mM PMSF, 10 μM PUGNAC, 10 μM TMG and 1× Complete protease inhibitor cocktail were added to the solution. The mixture was sonicated and then subjected to a 5 minute incubation at 95° C. The samples were centrifuged for 15 minutes at 20,000×g and the supernatant was collected and the total protein was measured by BCA assay (BIO-RAD).
The sample was separated by SDS-PAGE (Bio-Rad 4-15%, Cat: 345-0028), transferred to a nitrocellulose membrane (iBlot, Invitrogen) and probed with the indicated antibody. Tyipcally, membranes were blocked with 4% BSA in 1× TBS+0.04% tween-20 for 1 hour before incubating with antibody (typically diluted 1:1000 in 4% BSA inlx TBS+0.04% tween-20) overnight at 4° C. Membranes were then washed three times with 1× TBS+0.04% tween-20 and incubated with secondary antibody (typically diluted 1:5000 in 4% BSA in 1× TBS+0.04% tween-20) for 1 hour at room temperature. Lastly, membranes were washed 3× with 1× TBS+0.04% tween-20 and imaged with ECL. D283-Med cells were treated as above but grown in F12-K media supplemented with 10% FBS and antibiotics. HEK, HeLa and LNCaP cells were treated as above but grown in RPMI media supplemented with 10% FBS and antibiotics.
(In western blotting, separated proteins are transferred to a membrane and probed.)

For the molecule `COc1ccccc1[C@@H](NS(=O)(=O)c1ccc2[nH]c(=O)ccc2c1)C(=O)N(Cc1ccco1)Cc1cccs1` [OSMI-1, (R)—N-(furan-2-ylmethyl)-2-(2-methoxyphenyl)-2-(2-oxo-1,2-dihydroquinoline-6-sulfonamido)-N-(thiophen-2-ylmethyl)acetamide], in data set [1] (50 μM), the Cytotoxicity entry is recorded as “not cytotoxic”. Also, the “Decrease of cell viability” value in data set [1] (50 μM, 24 hours) is reported as “about 50%”. In addition, the Apoptotic signaling entry in data set [1] (up to 50 μM) is recorded as “does not trigger apoptotic signaling”. In data set [2] (6 μM UDP-GlcNAc, 18 μM GST-Nup62), this molecule had an IC50 of 3 µM. The Ki in data set [2] (non-linear regression, competitive inhibition fit, Nup62 substrate, read-out: Inhibition constant (Ki)) stood at 0.4 µM. Besides, the Aqueous solubility entry in data set [3] is on record as “limited aqueous solubility”. In data set [4] (50 μM, 8-hour time course), the “Onset of reduction of global O-GlcNAcylation” value is “within two hours”. For the same molecule, the “Concentration of maximal reduction of global O-GlcNAcylation” value in data set [4] (24 hr, 10-100 μM tested) stood at 50 µM.
